According to the supplement of paper PMC4862054:

Assays:
Settings in all cases: incubation time: 72 h
BT-474 [1] = assay: normalised response (% of control), CellTox Green; higher = less cell death (100 = DMSO, 0 = benzethonium chloride kill control)
Outline: (§1)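 Every value is a normalised signal taken at one concentration of a dilution series. Compound was placed in 384-well plates at 5 concentrations in 10-fold steps over a compound-specific 10,000-fold range, and 20 µl of breast cancer cell suspension was seeded onto it. After 72 h, CellTox Green fluorescence (485/520 nm) was measured first and CellTiter-Glo luminescence second, following 10 min at room temperature. Each plate was scaled to 0.1 % DMSO (100) and a positive kill control (0).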

BT-549 [2] = assay: as above
Outline: as §1

CAL-120 [3] = assay: as above
Outline: as §1

CAL-148 [4] = assay: as above
Outline: as §1

CAL-51 [5] = assay: as above
Outline: as §1

CAL-85-1 [6] = assay: as above
Outline: as §1

DU-4475 [7] = assay: as above
Outline: as §1

HCC1143 [8] = assay: as above
Outline: as §1

HCC1599 [9] = assay: as above
Outline: as §1

HCC1937 [10] = assay: as above
Outline: as §1

Hs578T [11] = assay: as above
Outline: as §1

MCF-10A [12] = assay: as above
Outline: as §1

MDA-MB-231 [13] = assay: as above
Outline: as §1

MDA-MB-436 [14] = assay: as above
Outline: as §1

MDA-MB-453 [15] = assay: as above
Outline: as §1

MDA-MB-468 [16] = assay: as above
Outline: as §1

MFM-223 [17] = assay: as above
Outline: as §1

BT-474 [18] = assay: normalised response (% of control), CellTiter-Glo; higher = more viable cells (100 = DMSO, 0 = benzethonium chloride kill control)
Protocol: (§2)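 DSRT, 72 h incubation, CellTox Green / CellTiter-Glo readout. Signal is normalised to DMSO and benzethonium chloride controls. Value is the normalised response at dose 3.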

BT-549 [19] = assay: as above
Protocol: as §2

CAL-120 [20] = assay: as above
Protocol: as §2

CAL-148 [21] = assay: as above
Protocol: as §2

CAL-51 [22] = assay: as above
Protocol: as §2

CAL-85-1 [23] = assay: as above
Protocol: as §2

DU-4475 [24] = assay: as above
Protocol: as §2

HCC1143 [25] = assay: as above
Protocol: as §2

HCC1599 [26] = assay: as above
Protocol: as §2

HCC1937 [27] = assay: as above
Protocol: as §2

HDQ-P1 [28] = assay: as above
Protocol: as §2

Hs578T [29] = assay: as above
Protocol: as §2

MCF-10A [30] = assay: as above
Protocol: as §2

MDA-MB-231 [31] = assay: as above
Protocol: as §2

MDA-MB-436 [32] = assay: as above
Protocol: as §2

MDA-MB-453 [33] = assay: as above
Protocol: as §2

MDA-MB-468 [34] = assay: as above
Protocol: as §2

MFM-223 [35] = assay: as above
Protocol: as §2

SK-BR-3 [36] = assay: as above
Protocol: as §2

HDQ-P1 [37] = assay: normalised response (% of control), CellTox Green; higher = less cell death (100 = DMSO, 0 = benzethonium chloride kill control)
Outline: as §1

BT-474 [38] = assay: normalised response (% of control), CellTiter-Glo; higher = more viable cells (100 = DMSO, 0 = benzethonium chloride kill control); remark: listed apart in the source
Outline: as §1

BT-549 [39] = assay: as above; remark: listed apart in the source
Outline: as §1

CAL-120 [40] = assay: as above; remark: listed apart in the source
Outline: as §1

CAL-148 [41] = assay: as above; remark: listed apart in the source
Outline: as §1

CAL-51 [42] = assay: as above; remark: listed apart in the source
Outline: as §1

CAL-85-1 [43] = assay: as above; remark: listed apart in the source
Outline: as §1

DU-4475 [44] = assay: as above; remark: listed apart in the source
Outline: as §1

HCC1143 [45] = assay: as above; remark: listed apart in the source
Outline: as §1

HCC1599 [46] = assay: as above; remark: listed apart in the source
Outline: as §1

HCC1937 [47] = assay: as above; remark: listed apart in the source
Outline: as §1

HDQ-P1 [48] = assay: as above; remark: listed apart in the source
Outline: as §1

Hs578T [49] = assay: as above; remark: listed apart in the source
Outline: as §1

MCF-10A [50] = assay: as above; remark: listed apart in the source
Outline: as §1

MDA-MB-231 [51] = assay: as above; remark: listed apart in the source
Outline: as §1

MDA-MB-436 [52] = assay: as above; remark: listed apart in the source
Outline: as §1

MDA-MB-453 [53] = assay: as above; remark: listed apart in the source
Outline: as §1

MDA-MB-468 [54] = assay: as above; remark: listed apart in the source
Outline: as §1

MFM-223 [55] = assay: as above; remark: listed apart in the source
Outline: as §1

SK-BR-3 [56] = assay: as above; remark: listed apart in the source
Outline: as §1

C[C@H]1C[C@@H]2[C@H]([C@@H](O)C[C@@]3(C)[C@H]2CC[C@]3(O)C(=O)CO)[C@@]2(C)C=CC(=O)C=C12 [Methylprednisolone] (100 nM)
normalised response (BT-474 [1]): 98.9% | normalised response (BT-549 [2]): 103% | normalised response (CAL-120 [3]): 103% | normalised response (CAL-148 [4]): 107% | normalised response (CAL-51 [5]): 111% | normalised response (CAL-85-1 [6]): 102% | normalised response (DU-4475 [7]): 102% | normalised response (HCC1143 [8]): 90.4% | normalised response (HCC1599 [9]): 110% | normalised response (HCC1937 [10]): 115% | normalised response (Hs578T [11]): 89% | normalised response (MCF-10A [12]): 101% | normalised response (MDA-MB-231 [13]): 140% | normalised response (MDA-MB-436 [14]): 89.9% | normalised response (MDA-MB-453 [15]): 76.2% | normalised response (MDA-MB-468 [16]): 169% | normalised response (MFM-223 [17]): 78.2% | normalised response (BT-474 [18]): 152% | normalised response (BT-549 [19]): 101% | normalised response (CAL-120 [20]): 76.9% | normalised response (CAL-148 [21]): 109% | normalised response (CAL-51 [22]): 86.4% | normalised response (CAL-85-1 [23]): 115% | normalised response (DU-4475 [24]): 108% | normalised response (HCC1143 [25]): 108% | normalised response (HCC1599 [26]): 97.9% | normalised response (HCC1937 [27]): 98.3% | normalised response (HDQ-P1 [28]): 90.5% | normalised response (Hs578T [29]): 107% | normalised response (MCF-10A [30]): 106% | normalised response (MDA-MB-231 [31]): 156% | normalised response (MDA-MB-436 [32]): 104% | normalised response (MDA-MB-453 [33]): 99.9% | normalised response (MDA-MB-468 [34]): 111% | normalised response (MFM-223 [35]): 109% | normalised response (SK-BR-3 [36]): 104%

Oc1ncc(N(CCCl)CCCl)c(O)n1 [Uracil mustard] (100 nM)
normalised response (BT-474 [1]): 104% | normalised response (BT-549 [2]): 111% | normalised response (CAL-120 [3]): 106% | normalised response (CAL-148 [4]): 103% | normalised response (CAL-51 [5]): 109% | normalised response (CAL-85-1 [6]): 114% | normalised response (DU-4475 [7]): 108% | normalised response (HCC1143 [8]): 113% | normalised response (HCC1599 [9]): 102% | normalised response (HCC1937 [10]): 88% | normalised response (Hs578T [11]): 111% | normalised response (MCF-10A [12]): 114% | normalised response (MDA-MB-231 [13]): 118% | normalised response (MDA-MB-436 [14]): 109% | normalised response (MDA-MB-453 [15]): 110% | normalised response (MDA-MB-468 [16]): 154% | normalised response (MFM-223 [17]): 102% | normalised response (BT-474 [18]): 106% | normalised response (BT-549 [19]): 105% | normalised response (CAL-120 [20]): 103% | normalised response (CAL-148 [21]): 100% | normalised response (CAL-51 [22]): 110% | normalised response (CAL-85-1 [23]): 96.7% | normalised response (DU-4475 [24]): 99.1% | normalised response (HCC1143 [25]): 100% | normalised response (HCC1599 [26]): 95.5% | normalised response (HCC1937 [27]): 98% | normalised response (HDQ-P1 [28]): 104% | normalised response (Hs578T [29]): 102% | normalised response (MCF-10A [30]): 101% | normalised response (MDA-MB-231 [31]): 100% | normalised response (MDA-MB-436 [32]): 98.9% | normalised response (MDA-MB-453 [33]): 95.5% | normalised response (MDA-MB-468 [34]): 94.6% | normalised response (MFM-223 [35]): 104% | normalised response (SK-BR-3 [36]): 101%

CCCCC(=O)OCC(=O)[C@]1(O)Cc2c(O)c3c(c(O)c2[C@@H](O[C@H]2C[C@H](NC(=O)C(F)(F)F)[C@H](O)[C@H](C)O2)C1)C(=O)c1c(OC)cccc1C3=O [Valrubicin] (500 nM)
normalised response (BT-474 [1]): 106% | normalised response (BT-549 [2]): 78.4% | normalised response (CAL-120 [3]): 118% | normalised response (CAL-148 [4]): 56.9% | normalised response (CAL-51 [5]): 67.6% | normalised response (CAL-85-1 [6]): 144% | normalised response (DU-4475 [7]): 117% | normalised response (HCC1143 [8]): 150% | normalised response (HCC1599 [9]): 134% | normalised response (HCC1937 [10]): 167% | normalised response (HDQ-P1 [37]): 131% | normalised response (Hs578T [11]): 127% | normalised response (MCF-10A [12]): 113% | normalised response (MDA-MB-231 [13]): 157% | normalised response (MDA-MB-436 [14]): 131% | normalised response (MDA-MB-453 [15]): 131% | normalised response (MDA-MB-468 [16]): 276% | normalised response (MFM-223 [17]): 108% | normalised response (BT-474 [38]): 83.8% | normalised response (BT-549 [39]): 64.1% | normalised response (CAL-120 [40]): 86.9% | normalised response (CAL-148 [41]): 30.4% | normalised response (CAL-51 [42]): 50.3% | normalised response (CAL-85-1 [43]): 80.3% | normalised response (DU-4475 [44]): 52.3% | normalised response (HCC1143 [45]): 75.5% | normalised response (HCC1599 [46]): 102% | normalised response (HCC1937 [47]): 77.5% | normalised response (HDQ-P1 [48]): 81.7% | normalised response (Hs578T [49]): 88.6% | normalised response (MCF-10A [50]): 75.6% | normalised response (MDA-MB-231 [51]): 85.4% | normalised response (MDA-MB-436 [52]): 57.5% | normalised response (MDA-MB-453 [53]): 120% | normalised response (MDA-MB-468 [54]): 47.1% | normalised response (MFM-223 [55]): 108% | normalised response (SK-BR-3 [56]): 41%

CCCS(=O)(=O)Nc1ccc(F)c(C(=O)c2c[nH]c3ncc(-c4ccc(Cl)cc4)cc23)c1F [Vemurafenib] (1000 nM)
normalised response (BT-474 [1]): 98% | normalised response (BT-549 [2]): 116% | normalised response (CAL-120 [3]): 99.7% | normalised response (CAL-148 [4]): 101% | normalised response (CAL-51 [5]): 82.6% | normalised response (CAL-85-1 [6]): 100% | normalised response (DU-4475 [7]): 78.9% | normalised response (HCC1143 [8]): 91.8% | normalised response (HCC1599 [9]): 90.8% | normalised response (HCC1937 [10]): 108% | normalised response (HDQ-P1 [37]): 73.9% | normalised response (Hs578T [11]): 100% | normalised response (MCF-10A [12]): 88.2% | normalised response (MDA-MB-231 [13]): 97% | normalised response (MDA-MB-436 [14]): 65.4% | normalised response (MDA-MB-453 [15]): 104% | normalised response (MDA-MB-468 [16]): 127% | normalised response (MFM-223 [17]): 98% | normalised response (BT-474 [38]): 90.8% | normalised response (BT-549 [39]): 93.1% | normalised response (CAL-120 [40]): 90% | normalised response (CAL-148 [41]): 86.4% | normalised response (CAL-51 [42]): 88.6% | normalised response (CAL-85-1 [43]): 92.3% | normalised response (DU-4475 [44]): 35% | normalised response (HCC1143 [45]): 95.6% | normalised response (HCC1599 [46]): 104% | normalised response (HCC1937 [47]): 97.3% | normalised response (HDQ-P1 [48]): 94.8% | normalised response (Hs578T [49]): 103% | normalised response (MCF-10A [50]): 101% | normalised response (MDA-MB-231 [51]): 94.3% | normalised response (MDA-MB-436 [52]): 94.2% | normalised response (MDA-MB-453 [53]): 90.7% | normalised response (MDA-MB-468 [54]): 86.9% | normalised response (MFM-223 [55]): 86.4% | normalised response (SK-BR-3 [56]): 79%
